Assay results published in patent US9777010B2, “Substituted 4-phenylpiperidines, their preparation and use” (THE TRUSTEES OF COLUMBIA UNIVERSITY IN THE CITY OF NEW YORK, priority 2014, dated 2017).

How the values were obtained:
RBP4-TTR interaction = RBP4-TTR interaction (Homo sapiens (Human), UniProt P02753); experiment: TR-FRET (HTRF) assay for retinol-induced RBP4-TTR interaction; type: biochemical; settings: in the presence of 1 μM retinol; read-out: HTRF assay for antagonists of RBP4-TTR interaction: IC50
Procedure: Binding of a desired RBP4 antagonist displaces retinol and induces hindrance for RBP4-TTR interaction resulting in the decreased FRET signal (FIG. 7). Bacterially expressed MBP-RBP4 and untagged TTR were used in this assay. […] Following cell lysis, recombinant RBP4 was purified from the soluble fraction using the ACTA FPLC system (GE Healthcare) equipped with the 5-ml the MBP Trap HP column. Human untagged TTR was purchased from Calbiochem. […] HTRF assay was performed in white low volume 384 well plates (Greiner-Bio) in a final assay volume of 16 μl per well. The reaction buffer contained 10 mM Tris-HCl pH 7.5, 1 mM DTT, 0.05% NP-40, 0.05% Prionex, 6% glycerol, and 400 mM KF. […] Titration of test compounds in this assay was conducted in the presence of 1 μM retinol. All reactions were assembled in the dark under dim red light and incubated overnight at +4° C. wrapped in aluminum foil. TR-FRET signal was measured in the SpectraMax M5e Multimode Plate Reader (Molecular Device). […] The TR-FRET signal was expressed as the ratio of fluorescence intensity: Flu665/Flu620×10,000.

serum RBP4 and retinol = settings: in vivo; cited from earlier work

| SMILES | IC50 (RBP4-TTR interaction) | serum RBP4 and retinol (serum RBP4 and retinol) |
| --- | --- | --- |
| COCCN1CCc2c(C(=O)N3CCC(c4cccc(F)c4C(F)(F)F)CC3)n[nH]c2C1 [Compound 77, (4-(3-Fluoro-2-(trifluoromethyl)phenyl)piperidin-1-yl)(6-(2-methoxyethyl)-4,5,6,7-tetrahydro-3aH-pyrazolo[3,4-c]pyridin-3-yl)methanone] | 1.62 nM | – |
| CC1=C(/C=C/C(C)=C/C=C/C(C)=C/C(=O)Nc2ccc(O)cc2)C(C)(C)CCC1 [fenretinide, N-(4-hydroxy-phenyl)retinamide] | – | reduce serum RBP4 and retinol |
